Test results taken from patent publication US11931424B2, “Combination MCL-1 inhibitors with anti-body drug conjugates” (Gilead Sciences, Inc., priority 2021, dated 2024).

Tested on: panel of breast cancer cell lines
Test: Compound A with targeted agents and chemotherapies, 72-hour in vitro proliferation assays
Type: cell-based
Conditions: 72-hour proliferation
[1] = AU565 cell line, compound A × partner
[2] = BT-20 cell line, compound A × partner
[3] = BT-474 cell line, compound A × partner
[4] = BT-549 cell line, compound A × partner
[5] = CAL-51 cell line, compound A × partner
[6] = CAL-85-1 cell line, compound A × partner
[7] = CAL-120 cell line, compound A × partner
[8] = CAL-148 cell line, compound A × partner
[9] = CAMA-1 cell line, compound A × partner
[10] = DU-4475 cell line, compound A × partner
[11] = EVSA-T cell line, compound A × partner
[12] = HCC1143 cell line, compound A × partner
[13] = MCF7 cells, Compound A × partner agent
[14] = MDA-MB-175-VII cells, Compound A × partner agent
[15] = MDA-MB-231 cells, Compound A × partner agent
[16] = MDA-MB-361 cells, Compound A × partner agent
[17] = MDA-MB-436 cells, Compound A × partner agent
[18] = MDA-MB-453 cells, Compound A × partner agent
[19] = MDA-MB-468 cells, Compound A × partner agent
[20] = SK-BR-3 cells, Compound A × partner agent
[21] = SUM159PT cells, combination of compound A with the named agent
[22] = T47D cells, combination of compound A with the named agent
[23] = ZR-75-1 cells, combination of compound A with the named agent
[24] = ZR-75-30 cells, combination of compound A with the named agent

SMILES: CC(=O)O[C@@]12CO[C@@H]1C[C@H](O)[C@@]1(C)C(=O)[C@H](O)C3=C(C)[C@@H](OC(=O)[C@H](O)[C@@H](NC(=O)OC(C)(C)C)c4ccccc4)C[C@@](O)([C@@H](OC(=O)c4ccccc4)[C@H]21)C3(C)C [Docetaxel]
- Bliss Volume [1]: 16.97
- HSA volume [1]: 3.68
- Loewe Volume [1]: 1.71
- Synergy Score [1]: 7.58
- Bliss Volume [2]: 27.23
- HSA volume [2]: 21.05
- Loewe Volume [2]: 19.90
- Synergy Score [2]: 39.72
- Bliss Volume [3]: 16.39
- HSA volume [3]: 9.80
- Loewe Volume [3]: 8.62
- Synergy Score [3]: 14.51
- Bliss Volume [4]: 22.57
- HSA volume [4]: 22.13
- Loewe Volume [4]: 22.04
- Synergy Score [4]: 39.66
- Bliss Volume [5]: 2.26
- HSA volume [5]: 3.35
- Loewe Volume [5]: 3.12
- Synergy Score [5]: 4.88
- Bliss Volume [6]: 13.68
- HSA volume [6]: 11.86
- Loewe Volume [6]: 11.10
- Synergy Score [6]: 19.64
- Bliss Volume [7]: 8.92
- HSA volume [7]: 7.98
- Loewe Volume [7]: 8.39
- Synergy Score [7]: 11.63
- Bliss Volume [8]: 15.94
- HSA volume [8]: 13.90
- Loewe Volume [8]: 12.92
- Synergy Score [8]: 28.74
- Bliss Volume [9]: 29.57
- HSA volume [9]: 6.98
- Loewe Volume [9]: 4.88
- Synergy Score [9]: 13.30
- Bliss Volume [10]: 19.28
- HSA volume [10]: 13.68
- Loewe Volume [10]: 12.74
- Synergy Score [10]: 20.30
- Bliss Volume [11]: 32.24
- HSA volume [11]: 12.42
- Loewe Volume [11]: 12.22
- Synergy Score [11]: 24.87
- Bliss Volume (HCC38, compound A × partner): 23.64
- HSA volume (HCC38, compound A × partner): 16.36
- Loewe Volume (HCC38, compound A × partner): 14.95
- Synergy Score (HCC38, compound A × partner): 29.56
- Bliss Volume (HCC70, compound A × partner): 25.33
- HSA volume (HCC70, compound A × partner): 22.90
- Loewe Volume (HCC70, compound A × partner): 20.81
- Synergy Score (HCC70, compound A × partner): 39.82
- Bliss Volume [12]: 11.00
- HSA volume [12]: 9.41
- Loewe Volume [12]: 8.32
- Synergy Score [12]: 18.84
- Bliss Volume (HCC1569, compound A × partner): 6.58
- HSA volume (HCC1569, compound A × partner): 8.56
- Loewe Volume (HCC1569, compound A × partner): 9.52
- Synergy Score (HCC1569, compound A × partner): 11.65
- Bliss Volume (HCC1806, compound A × partner): 17.46
- HSA volume (HCC1806, compound A × partner): 12.45
- Loewe Volume (HCC1806, compound A × partner): 12.66
- Synergy Score (HCC1806, compound A × partner): 25.50
- Bliss Volume (HCC1937, compound A × partner): 10.96
- HSA volume (HCC1937, compound A × partner): 11.56
- Loewe Volume (HCC1937, compound A × partner): 11.67
- Synergy Score (HCC1937, compound A × partner): 11.60
- Bliss Volume (HCC1954, compound A × partner): 25.28
- HSA volume (HCC1954, compound A × partner): 14.25
- Loewe Volume (HCC1954, compound A × partner): 12.73
- Synergy Score (HCC1954, compound A × partner): 25.34
- Bliss Volume (HCC2218, compound A × partner): 11.69
- HSA volume (HCC2218, compound A × partner): 6.53
- Loewe Volume (HCC2218, compound A × partner): 5.20
- Synergy Score (HCC2218, compound A × partner): 10.71
- Bliss Volume (HDQ-P1, compound A × partner): 7.85
- HSA volume (HDQ-P1, compound A × partner): 8.96
- Loewe Volume (HDQ-P1, compound A × partner): 8.67
- Synergy Score (HDQ-P1, compound A × partner): 11.43
- Bliss Volume (HMC-1-8, compound A × partner): 31.00
- HSA volume (HMC-1-8, compound A × partner): 8.49
- Loewe Volume (HMC-1-8, compound A × partner): 7.43
- Synergy Score (HMC-1-8, compound A × partner): 16.44
- Bliss Volume (JIMT-1, compound A × partner): 4.03
- HSA volume (JIMT-1, compound A × partner): 4.64
- Loewe Volume (JIMT-1, compound A × partner): 3.81
- Synergy Score (JIMT-1, compound A × partner): 6.23
- Bliss Volume (KPL-1, compound A × partner): 5.18
- HSA volume (KPL-1, compound A × partner): 8.06
- Loewe Volume (KPL-1, compound A × partner): 7.67
- Synergy Score (KPL-1, compound A × partner): 10.20
- Bliss Volume [13]: 14.35
- HSA volume [13]: 11.99
- Loewe Volume [13]: 11.64
- Synergy Score [13]: 17.93
- Bliss Volume [14]: 16.97
- HSA volume [14]: 10.22
- Loewe Volume [14]: 12.14
- Synergy Score [14]: 15.31
- Bliss Volume [15]: 5.15
- HSA volume [15]: 7.49
- Loewe Volume [15]: 6.89
- Synergy Score [15]: 11.57
- Bliss Volume [16]: −0.86
- HSA volume [16]: −2.31
- Loewe Volume [16]: −3.71
- Synergy Score [16]: 4.61
- Bliss Volume [17]: 1.49
- HSA volume [17]: 1.67
- Loewe Volume [17]: 1.48
- Bliss Volume [18]: 30.81
- HSA volume [18]: 22.87
- Loewe Volume [18]: 21.87
- Synergy Score [18]: 44.90
- Bliss Volume [19]: 28.07
- HSA volume [19]: 11.28
- Loewe Volume [19]: 10.11
- Synergy Score [19]: 20.73
- Bliss Volume [20]: 14.70
- HSA volume [20]: 4.18
- Loewe Volume [20]: 2.95
- Synergy Score [20]: 7.33
- Bliss Volume [21]: 18.66
- HSA volume [21]: 18.88
- Loewe Volume [21]: 17.94
- Synergy Score [21]: 33.03
- Bliss Volume [22]: −1.55
- HSA volume [22]: 2.30
- Loewe Volume [22]: 1.76
- Synergy Score [22]: 6.53
- Bliss Volume [23]: 16.15
- HSA volume [23]: 16.66
- Loewe Volume [23]: 17.29
- Synergy Score [23]: 25.42
- Bliss Volume [24]: 6.48
- HSA volume [24]: 3.70
- Loewe Volume [24]: 2.62
- Synergy Score [24]: 8.08
